Measured values taken from patent publication US20110263647A1 (AMGEN INC., priority 2009, published 2011).
Where two headings read alike, the source gives them in different places.

Tests used:
[1] = biological target: T1, CYP2D6 (Homo sapiens, UniProt P10635); experiment: CYP2D6 inhibition assay (bufuralol, pooled human liver microsomes); type: in vitro ADME; conditions: pH 7.4, probe bufuralol (5 μM), test compound 3 μM, human liver microsomes 0.25 mg/mL
T1 construct: tissue XenoTech LLC Lot 0610351; host or cells: pooled human liver microsomes
T1 sequence (P10635 whole entry): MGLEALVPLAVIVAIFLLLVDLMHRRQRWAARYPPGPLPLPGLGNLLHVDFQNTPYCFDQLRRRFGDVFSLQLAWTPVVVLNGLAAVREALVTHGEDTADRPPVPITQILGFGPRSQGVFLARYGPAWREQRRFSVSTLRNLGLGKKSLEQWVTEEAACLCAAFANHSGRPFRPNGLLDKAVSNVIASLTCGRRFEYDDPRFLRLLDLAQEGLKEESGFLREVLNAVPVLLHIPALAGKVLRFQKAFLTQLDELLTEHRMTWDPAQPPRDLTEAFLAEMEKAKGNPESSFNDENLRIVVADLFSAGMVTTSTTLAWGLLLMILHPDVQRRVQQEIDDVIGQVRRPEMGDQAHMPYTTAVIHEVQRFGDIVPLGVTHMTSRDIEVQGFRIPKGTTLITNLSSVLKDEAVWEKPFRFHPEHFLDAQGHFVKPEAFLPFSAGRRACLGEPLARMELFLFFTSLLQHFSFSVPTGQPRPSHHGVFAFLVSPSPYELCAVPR
Description: (§1) Midazolam was obtained from BD Gentest (Waltham, Mass.); 1′ hydroxy midazolam and 1-hydroxy bufuralol maleate were obtained from Ultrafine Chemicals (Manchester, UK); bufuralol HCl, ketoconazole, quinidine, potassium phosphate, and NADPH were obtained from Sigma (St. Louis, Mo.). Test compounds were prepared at 10 mM concentration in DMSO (Mallinckrodt Inc., St. Louis, Mo.). NADPH was prepared at 10 mM concentration in a pH 7.4 buffer (8.3 mg/mL 66.7 mM potassium phosphate). Midazolam was prepared at 1 mM concentration in deionized water (Amgen, Thousand Oaks, Calif.), and bufuralol was prepared at 2 mM concentration in deionized water. A stock solution of ketoconazole was prepared at 37 mM concentration in DMSO, and quinidine was prepared at 500 uM concentration in DMSO. Formic acid in acetonitrile (0.05%, ACN) was used as a quench solution (Sigma-Aldrich, St. Louis, Mo.). All solvents used for LC/MS were of chromatographic grade. Pooled human liver microsomes (Lot 0610351) were purchased from XenoTech LLC, (Lenexa, Kans.).
Pooled human liver microsomes (0.25 mg/mL) were incubated at 37° C. in a phosphate buffer (66.7 mM potassium phosphate at pH 7.4) with the selective CYP2D6 substrate bufuralol at a concentration of 5 μM in the presence and absence of test compound (3 μM). The reaction was started with the addition of NADPH (1 mM final concentration). The reaction was stopped after 10 minutes by addition of formic acid in acetonitrile. 1-Hydroxybufuralol metabolite formation was measured by an HPLC MS detection method (mobile phases for HPLC were: 0.1% AcOH in 5% MeOH, and 0.1% AcOH in 95% MeOH; the HPLC column was an Onyx Monolithic C18 CHO-7645 HPLC column from Phenomenex; Shimadzu LC-10ADVP equipped Biomek FX Liquid handling system and CTC Analytics PAL well auto-sampler; Mass spectrometer: Applied Biosystems API 3000 using Analyst 1.4.1 software). Inhibition was determined by the ratio of the amount of 1-hydroxy bufuralol metabolite formed metabolite in the presence of test compound to the amount of metabolite in the absence of test compound.

[2] = biological target: T2, CYP3A4 (Homo sapiens, UniProt P08684); experiment: CYP3A4 inhibition assay (midazolam, pooled human liver microsomes); type: in vitro ADME; conditions: pH 7.4, probe midazolam (2.5 μM), test compound 3 μM, human liver microsomes 0.1 mg/mL
T2 construct: tissue XenoTech LLC Lot 0610351; host or cells: pooled human liver microsomes
T2 sequence (P08684 whole entry): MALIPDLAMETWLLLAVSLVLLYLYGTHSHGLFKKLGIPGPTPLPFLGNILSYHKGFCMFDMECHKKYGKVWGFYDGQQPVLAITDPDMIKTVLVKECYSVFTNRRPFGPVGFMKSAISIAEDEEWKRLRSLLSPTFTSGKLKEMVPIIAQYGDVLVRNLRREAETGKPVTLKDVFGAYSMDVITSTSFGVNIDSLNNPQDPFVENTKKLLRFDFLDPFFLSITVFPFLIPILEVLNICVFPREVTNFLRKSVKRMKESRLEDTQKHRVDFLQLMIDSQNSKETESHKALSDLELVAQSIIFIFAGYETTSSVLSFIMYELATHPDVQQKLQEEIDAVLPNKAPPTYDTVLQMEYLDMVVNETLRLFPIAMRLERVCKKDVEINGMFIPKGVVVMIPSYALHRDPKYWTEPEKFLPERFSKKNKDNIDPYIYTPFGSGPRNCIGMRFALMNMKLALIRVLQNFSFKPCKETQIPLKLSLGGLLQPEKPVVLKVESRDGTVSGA
Description: as §1
Pooled human liver microsomes (0.1 mg/mL) were incubated at 37° C. in a phosphate buffer (66.7 mM potassium phosphate at pH 7.4) with the selective CYP3A substrate midazolam at a concentration of 2.5 μM in the presence and absence of test compound (3 μM). The reaction was started with the addition of NADPH (1 mM final concentration). The reaction was stopped after 10 minutes by addition of formic acid in acetonitrile. 1′-Hydroxymidazolam metabolite formation was measured by an HPLC MS detection method (mobile phases were 0.1% AcOH in 5% MeOH, and 0.1% AcOH in 95% MeOH; the HPLC column was an Onyx Monolithic C18 CHO-7645 HPLC column obtained from Phenomenex; Shimadzu LC-10ADVP equipped Biomek FX Liquid handling system and CTC Analytics PAL well auto-sampler; Mass spectrometer: Applied Biosystems API 3000 using Analyst 1.4.1 software). Inhibition was determined by the ratio of the amount of 1′-hydroxy midazolam metabolite formed in the presence of test compound to the amount of metabolite found in the absence of test compound Inhibition was measured relative to the rate of formation of 1′-hydroxy midazolam incubated at 2.5 μM without test compound.

[3] = In vivo pharmacokinetics, IV and oral gavage; set-up: species or system male Sprague-Dawley rats; conditions: rat; for FPO: Table 5; for Fpo (%): Table 6; for clearance / AUC(0-t) / Cmax / Vd: male, Sprague-Dawley, plasma; for Vd: read-out: Vss
Description: In vivo pharmacokinetic parameters were determined by measuring systemic plasma exposure in male Sprague-Dawley rats (Charles River Laboratories or Taconic, Oxnard, Calif.) by intravenous administration (N=3 fed rats: 2 mg/kg tail vein injection in DMSO) and oral gavage (N=3 fasted rats: 5 mg/kg in 1% Tween 80-2% HPMC-97% deionized water-pH 2.0 vehicle) (Comparative Example 18′ was only dosed IV and at 0.5 mg/kg). DMSO was obtained from Mallinckrodt Inc.; Tween 80 was obtained from Croda; HPMC is Methocel E50 Premium LV, obtained from Dow Excipients. Following oral administration, blood was drawn (250 μL) at 0.25, 0.5, 1, 2, 4, 6, 8, 12, and 16 hours. Following iv administration, blood was drawn (250 μL) at 0.083, 0.25, 0.5, 1, 2, 4, 6, 8, and 16 hours. Blood samples were drawn using a Culex® In Vivo Sampling System (BASi) and collected in BD Microtainer® tubes containing Lithium Heparin (BD). Plasma was obtained by centrifugation of blood at 14000 g and 2-8° C. for five minutes using an Eppendorf 5417R Centrifuge System. Plasma samples were mixed with 2× volume of acetonitrile (Sigma-Aldrich, St. Louis, Mo.). The mixture was stirred briefly using a vortex mixer and then centrifuged at 2867 g for 5 minutes in a Beckman Coulter Allegra 25R equipped with a Type S5700 rotor. The supernatant was removed and diluted 2× with mobile phase A (5/94.9/0.1 v/v/v MeOH/water/AcOH). Plasma concentrations were determined using liquid chromatography/tandem mass spectrometry, with electrospray ionization (ESI) and multiple reaction monitoring in the positive ion mode (Sciex API 3000 mass spectrometer connected to a Shimadzu LC-20AD pump and a LEAP PAL autosampler. Typical conditions used for HPLC were: mobile phase A=5/94.9/0.1 v/v/v MeOH/water/AcOH and mobile phase B=95/4.9/0.1 v/v/v MeOH/water/AcOH; HPLC column was a Varian MonoChrom C18.3μ for 2×30 mm and 51.1 for 2×50 mm) Instrument response was calibrated by a standard curve over 0.1-2000 ng/mL concentration range, and the lower limit of quantitation was 0.1-2.5 ng/mL. Peak areas were integrated on a Windows 2000 computer using the Sciex program Analyst® (Version 1.4.1). Following peak area integration, the data were exported to the software package (Watson® Non-GLP PROD (Version 7.0.0.01, Thermo Electron Corp., Waltham, Mass.)), where concentrations were determined by a weighted linear regression of peak area versus the nominal concentrations of the calibration standards. Calculations were performed on unrounded numbers. The Watson® Non-GLP PROD software was used to determine precision and accuracy for the calibration standards. Noncompartmental analysis of plasma concentration data was used to generate PK parameters such as clearance (CL, L/h/kg), volume of distribution (Vss, L/kg), area under the curve (AUC, ng·h/mL) and secondary parameters such as half-life (t1/2, h) and oral bioavailability (% F, %). This was done using WinNonlin Enterprise software (Version 5.1.1, from Pharsight Corp., Mountain View, Calif.). References for pharmacokinetic analysis include: Gabrielsson and Weiner (1997) Pharmacokinetic and Pharmacodynamic Data Analysis Concepts and Applications, 2nd ed., Swedish Pharmaceutical Press, Stockholm; Gibaldi and Perrier (1982) Pharmacokinetics, 2nd ed., Marcel Dekker, New York. Rowland and Tozer (1995) Clinical Pharmacokinetics: Concepts and Applications, 3rd ed., Lippincott Williams & Wilkins, Philadelphia.

[4] = IV 2 mg/kg, read-out: IV AUClast
[5] = PO 5 mg/kg, read-out: Oral AUClast
[6] = PO 5 mg/kg, read-out: Oral Cmax

N[C@H](CNc1ncc(-c2ccc3cnccc3c2)s1)Cc1ccc(C(F)(F)F)nc1 [2′, reference compound]
inhibition at 10 min, 3 μM [1]: 94%
inhibition at 10 min, 3 μM [2]: 100%
FPO ([3]; PO 5 mg/kg, IV 2 mg/kg): 5%
Fpo (%) ([3]; PO 5 mg/kg, IV 2 mg/kg): 5%
clearance ([3]; IV 2 mg/kg): 37.4 mL/min/kg
AUC(0-t) [3, 4]: 870 ng·h/mL
Cmax ([3]; IV 2 mg/kg, read-out: IV Cmax): 1260 ng/mL
Vd ([3]; IV 2 mg/kg): 2.32 L/kg
AUC(0-t) [3, 5]: 117 ng·h/mL
Cmax [3, 6]: 29 ng/mL

N[C@H](CNc1ncc(-c2ccc3cnccc3c2)s1)Cc1ccc(C(F)(F)F)cc1 [4′, reference compound]
inhibition at 10 min, 3 μM [1]: 78%
inhibition at 10 min, 3 μM [2]: 87%
FPO ([3]; PO 5 mg/kg, IV 2 mg/kg): 27%
Fpo (%) ([3]; PO 5 mg/kg, IV 2 mg/kg): 20%
clearance ([3]; IV 2 mg/kg): 50.9 mL/min/kg
AUC(0-t) [3, 4]: 651 ng·h/mL
Cmax ([3]; IV 2 mg/kg, read-out: IV Cmax): 422 ng/mL
Vd ([3]; IV 2 mg/kg): 6.17 L/kg
AUC(0-t) [3, 5]: 432 ng·h/mL
Cmax [3, 6]: 86 ng/mL

CC(F)(F)c1ccc(C[C@H](N)CNc2ncc(-c3ccc4cnccc4c3)s2)cn1 [7′, reference compound]
inhibition at 10 min, 3 μM [1]: 79%
inhibition at 10 min, 3 μM [2]: 86%
FPO ([3]; PO 5 mg/kg, IV 2 mg/kg): 4%
Fpo (%) ([3]; PO 5 mg/kg, IV 2 mg/kg): 3%
clearance ([3]; IV 2 mg/kg): 97.9 mL/min/kg
AUC(0-t) [3, 4]: 336 ng·h/mL
Cmax ([3]; IV 2 mg/kg, read-out: IV Cmax): 490 ng/mL
Vd ([3]; IV 2 mg/kg): 4.55 L/kg
AUC(0-t) [3, 5]: 30 ng·h/mL
Cmax [3, 6]: 8 ng/mL

N[C@H](CNc1ncc(-c2ccc3cnccc3c2)s1)[C@@H](CO)c1ccc(C(F)(F)F)cc1 [33′, reference compound]
inhibition at 10 min, 3 μM [1]: 88%
inhibition at 10 min, 3 μM [2]: 91%
FPO ([3]; PO 5 mg/kg, IV 2 mg/kg): 12%
Fpo (%) ([3]; PO 5 mg/kg, IV 2 mg/kg): 10%
clearance ([3]; IV 2 mg/kg): 47.5 mL/min/kg
AUC(0-t) [3, 4]: 691 ng·h/mL
Cmax ([3]; IV 2 mg/kg, read-out: IV Cmax): 797 ng/mL
Vd ([3]; IV 2 mg/kg): 4.18 L/kg
AUC(0-t) [3, 5]: 199 ng·h/mL
Cmax [3, 6]: 23 ng/mL

N[C@H](CNc1ncc(-c2ccc3cnccc3c2)s1)CN1CCC(C(F)(F)F)CC1 [Comparative Example 25′, reference compound]
inhibition at 10 min, 3 μM [1]: 81%
inhibition at 10 min, 3 μM [2]: 94%
FPO ([3]; PO 5 mg/kg, IV 2 mg/kg): 146%
Fpo (%) ([3]; PO 5 mg/kg, IV 2 mg/kg): 65%
clearance ([3]; IV 2 mg/kg): 85.6 mL/min/kg
AUC(0-t) [3, 4]: 359 ng·h/mL
Cmax ([3]; IV 2 mg/kg, read-out: IV Cmax): 284 ng/mL
Vd ([3]; IV 2 mg/kg): 8.78 L/kg
AUC(0-t) [3, 5]: 1310 ng·h/mL
Cmax [3, 6]: 153 ng/mL

N[C@H](CNc1ncc(-c2ccc3cnccc3c2)s1)Cc1ccc(Cl)c(F)c1 [44′, reference compound]
inhibition at 10 min, 3 μM [1]: 75%
inhibition at 10 min, 3 μM [2]: 94%
FPO ([3]; PO 5 mg/kg, IV 2 mg/kg): 51%
Fpo (%) ([3]; PO 5 mg/kg, IV 2 mg/kg): 45%
clearance ([3]; IV 2 mg/kg): 41.5 mL/min/kg
AUC(0-t) [3, 4]: 787 ng·h/mL
Cmax ([3]; IV 2 mg/kg, read-out: IV Cmax): 816 ng/mL
Vd ([3]; IV 2 mg/kg): 0.766 L/kg
AUC(0-t) [3, 5]: 1000 ng·h/mL
Cmax [3, 6]: 138 ng/mL

COCc1nc(NC[C@@H](N)Cc2ccc(C(F)(F)F)cc2)sc1-c1ccc2cnccc2c1 [24′, reference compound]
inhibition at 10 min, 3 μM [1]: 94%
inhibition at 10 min, 3 μM [2]: 100%
FPO ([3]; PO 5 mg/kg, IV 2 mg/kg): 14%
Fpo (%) ([3]; PO 5 mg/kg, IV 2 mg/kg): 19%
clearance ([3]; IV 2 mg/kg): 90.1 mL/min/kg
AUC(0-t) [3, 4]: 369 ng·h/mL
Cmax ([3]; IV 2 mg/kg, read-out: IV Cmax): 465 ng/mL
Vd ([3]; IV 2 mg/kg): 10.2 L/kg
AUC(0-t) [3, 5]: 129 ng·h/mL
Cmax [3, 6]: 51 ng/mL

N[C@H](CCc1ncc(-c2ccc3cnccc3c2)s1)[C@@H](O)c1ccc(C(F)(F)F)cc1 [36′, reference compound]
inhibition at 10 min, 3 μM [1]: 86%
inhibition at 10 min, 3 μM [2]: 72%
FPO ([3]; PO 5 mg/kg, IV 2 mg/kg): 20%
Fpo (%) ([3]; PO 5 mg/kg, IV 2 mg/kg): 19%
clearance ([3]; IV 2 mg/kg): 150 mL/min/kg
AUC(0-t) [3, 4]: 221 ng·h/mL
Cmax ([3]; IV 2 mg/kg, read-out: IV Cmax): 347 ng/mL
Vd ([3]; IV 2 mg/kg): 13.2 L/kg
AUC(0-t) [3, 5]: 113 ng·h/mL
Cmax [3, 6]: 27 ng/mL

CC(F)(F)c1ccc([C@H](O)[C@H](N)CNc2ncc(-c3ccc4cnccc4c3)s2)cc1 [38′, reference compound]
inhibition at 10 min, 3 μM [1]: 88%
inhibition at 10 min, 3 μM [2]: 86%
FPO ([3]; PO 5 mg/kg, IV 2 mg/kg): 4%
Fpo (%) ([3]; PO 5 mg/kg, IV 2 mg/kg): 4%
clearance ([3]; IV 2 mg/kg): 108 mL/min/kg
AUC(0-t) [3, 4]: 299 ng·h/mL
Cmax ([3]; IV 2 mg/kg, read-out: IV Cmax): 412 ng/mL
Vd ([3]; IV 2 mg/kg): 6.67 L/kg
AUC(0-t) [3, 5]: 30 ng·h/mL
Cmax [3, 6]: 13 ng/mL
